Key:
[1] = system: patients with mild-to-moderate asthma; assay: Phase 3 clinical trial, albuterol-budesonide combination vs. mono-components, four times daily for 12 weeks; type: in vivo, human; settings: for Change from baseline in FEV1 AUC0-6 over 12 weeks, LSM / Change from baseline in trough FEV1 over 12 weeks, LSM: four times daily
Description: A Phase 3 clinical study evaluated contributions of the mono-components albuterol and budesonide to albuterol/budesonide combination efficacy in patients with mild-to-moderate asthma ≥4 years. Patients≥12 years were randomized 1:1:1:1:1 to four-times-daily albuterol/budesonide 180/160 or 180/80 μg, albuterol 180 μg, budesonide 160 μg or placebo for 12 weeks; patients 4-11 years were not included in this analysis set.
In the study, 1001 patients with mild-to-moderate asthma were randomized 1:1:1:1:1 to ABD 180/160 μg or 180/80 μg, albuterol (A) 180 μg, budesonide (B) 160 μg, or placebo, all four times daily (QID), for 12 weeks. […] Secondary endpoints included time to onset, as measured by 15% improvement in FEV1 within 30 minutes on Day 1, and duration of effect, and Asthma Control Questionnaire-7 (ACQ-7) responder (≥0.5-point reduction from baseline) analysis at Week 12.

[2] = system: patients with uncontrolled moderate-to-severe asthma; settings: human, in vivo, 180 μg
Description: (§1) Safety endpoints (adverse events [AEs] and serious adverse events [SAEs]) were assessed from date of informed consent/assent through the safety follow-up.
(§2) All randomized patients who received any amount of study drug, classified by the study medication they were randomized to, were included in the efficacy analyses comparing albuterol-budesonide 180/80-μg with albuterol. […] All patients receiving any amount of randomized study medication, and classified by the study medication they actually received, were included for all safety analyses.

[3] = system: patients with uncontrolled moderate-to-severe asthma; assay: Phase 3 clinical trial, as-needed albuterol-budesonide fixed dose combination vs. albuterol alone: efficacy and study medication use; type: in vivo, human; settings: for % of patients with a severe exacerbation / number of patients with a severe exacerbation: as-needed use
[4] = system: patients with uncontrolled moderate-to-severe asthma; assay: Phase 3 clinical trial, albuterol-budesonide FDC vs. albuterol alone: safety endpoints (adverse events)
Description: as §1, §2

[5] = vs placebo, full analysis set ≥12 years
[6] = comparison 180/80-μg versus albuterol, all patients
[7] = comparison 180/160-μg versus albuterol, excludes children
[8] = comparison albuterol-budesonide 180/80-μg versus albuterol, all patients
[9] = comparison albuterol-budesonide 180/160-μg versus albuterol, excludes children (albuterol n=1,014)
[10] = AE in ≥2% of patients in any group
[11] = treatment-related, investigator-assessed AE

SMILES: CCCC1O[C@@H]2C[C@H]3[C@@H]4CCC5=CC(=O)C=C[C@]5(C)[C@H]4[C@@H](O)C[C@]3(C)[C@]2(C(=O)CO)O1 (mixture of isomers) [budesonide 160 μg, (RS)-11β,21-dihydroxy-16α,17α-(butylidenebis(oxy)) pregna-1,4-diene-3,20-dione]
- Change from baseline in FEV1 AUC0-6 over 12 weeks, LSM ([1]; full analysis set ≥12 years): 178.0 mL
- Change from baseline in trough FEV1 over 12 weeks, LSM ([1]; full analysis set ≥12 years): 108.9 vs mL
- Change from baseline in trough FEV1 over 12 weeks, difference in LSM [1, 5]: 73.3 mL

SMILES: CC(C)(C)NCC(O)c1ccc(O)c(CO)c1 (stereo not shown) [albuterol 180-μg, 4-(2-(tert-butylamino)-1-hydroxyethyl)-2-(hydroxymethyl) phenol]
- frequency of SAEs, including deaths [2]: 4.5%
- Annualized severe exacerbation rate [3, 6]: 0.61
- Annualized total systemic glucocorticoid exposure (prednisone equivalents), median [3, 6]: 0.0 mg/year
- Annualized severe exacerbation rate [3, 7]: 0.59
- Annualized total systemic glucocorticoid exposure (prednisone equivalents), median [3, 7]: 0.0 mg/year
- % of patients with a severe exacerbation [3, 8]: 26.1%
- number of patients with a severe exacerbation [3, 8]: 276
- % of patients with a severe exacerbation [3, 9]: 26.2%
- number of patients with a severe exacerbation [3, 9]: 266
- severe exacerbations requiring ED or urgent care visits (number) ([3]; per treatment arm): 66
- severe exacerbations requiring hospitalization (number) ([3]; per treatment arm): 17
- Asthma, % [4, 10]: 3.3%
- Back pain, % [4, 10]: 1.9%
- Bronchitis, % [4, 10]: 2.6%
- COVID-19, % [4, 10]: 4.4%
- Headache, % [4, 10]: 4.7%
- Hypertension, % [4, 10]: 2.5%
- Influenza, % [4, 10]: 1.3%
- Nasopharyngitis, % [4, 10]: 5.1%
- Sinusitis, % [4, 10]: 2.3%
- Upper respiratory tract infection, % [4, 10]: 2.5%
- Patients with any AE, % ([4]; Table 1): 46.4%
- frequency of AEs leading to discontinuation of treatment ([4]; human, in vivo): 0.9%
- frequency of inhaled glucocorticoid-associated adverse events ([4]; human, in vivo): 1.3%
- deaths (number) ([4]; no deaths considered treatment-related): 1
- frequency of any AE ([4]; randomized treatment groups): 46.4%
- dysphonia [4, 11]: 0.4%
- oral candidiasis [4, 11]: 0.5%
- oropharyngeal candidiasis [4, 11]: 0.1%
- responders (onset of effect) ([1]; Day 1, 15% improvement in FEV1 within 30 minutes): 42.9%
- Median time to onset ([1]; Day 1, 15% improvement in FEV1 within 30 minutes, responders): 9.5 min
- Median duration of effect ([1]; Day 1, responders): 168.2 min
- percentages of ACQ-7 responders ([1]; Week 12, ≥0.5-point reduction from baseline): 47.2%
- bronchodilation with repeated use over 1-4 weeks ([1]; compared with placebo): no difference
- Change from baseline in FEV1 AUC0-6 over 12 weeks, LSM ([1]; full analysis set ≥12 years): 157.2 vs mL
- Change from baseline in trough FEV1 over 12 weeks, LSM ([1]; full analysis set ≥12 years): 2.7 mL
- Change from baseline in FEV1 AUC0-6 over 12 weeks, difference in LSM [1, 5]: 60.5 mL

Source: US20250345292A1, “COMBINATION OF ALBUTEROL AND BUDESONIDE FOR THE TREATMENT OF ASTHMA” (priority 2022, published 2025)
